Publication PMC13371181, “A paracrine-to-autocrine shunt of GREM1 fuels colorectal cancer metastasis via ACVR1C” (Molecular Cancer, 2026)
Entries after “also recorded” stand apart in the source; their conditions may differ.

What was measured:
[1] = tested on: ACVR1C–SMAD2/3 pathway in HCT116 and SW480 cells; assay: Immunoblotting p-SMAD2/3 (ACVR1C pathway); format: cell-based, human; settings: HCT116 and SW480 cells, immunoblotting; GREM1-CM + GREM1 BAb or + SB505124 (1 µM)
Method: To investigate the effect of secreted GREM1 on CRC cells, an in vitro GREM1 secretion system was established using HEK293 cells. Stably GREM1-expressing cells (pcDNA3.1-GREM1) and empty-vector transfected cells (pcDNA3.1) were cultured in DMEM/F12 medium with 10% FBS until 40% confluence. After complete removal of the normal culture medium, HEK293-GREM1 and HEK293-Vec cells were continuously cultured in DMEM/F12 medium without FBS for 5 days before medium collection. GREM1 or Vector conditioned medium (GREM1-CM/Vec-CM) was then centrifuged at 1000 rpm for 30 min and the supernatant was collected for further study.
Protein was extracted from the cells with RIPA buffer (Beyotime, P0018) or NP40 lysis buffer (Beyotime, P0013F) and separated by SDS-PAGE, and transferred to polyvinylidene difluoride membranes. […] Band intensity was quantified using Fiji (ImageJ) by grayscale analysis.

[2] = tested on: HCT116-luc cells; assay: Cecum-to-liver metastasis model, GREM1-CM-pre-treated HCT116-luc in NOG mice; format: in vivo, human cells in NOG mice; settings: cecum wall, SB505124 10 mg/kg i.p. every other day, IVIS, n = 5 mice per group
Source text: To determine the role of the ACVR1C–SMAD2/3 axis in GREM1-mediated EMT in vivo, we harnessed HCT116 cells carrying a luciferase reporter (HCT116-luc), which stably express either shACVR1C or a scramble shRNA. These cells were pretreated with GREM1-CM prior to their subcutaneous transplantation into nude mice. […] These findings were further corroborated by IF staining of EMT markers, including E-CAD and SNAIL (Figs. 5E–G). As a complementary pharmacological approach, we inhibited ACVR1C-mediated SMAD2/3 activation using SB505124. […] Importantly, to investigate the impact of the ACVR1C–SMAD2/3 axis on metastasis, we injected GREM1-CM-pre-treated HCT116-luc cells, stably expressing either shACVR1C or scramble shRNA, into the tail vein of nude mice. […]
Figure S8. […] E-G, Representative IF images (E) and quantification (F, G) of E-CAD (green), SNAIL (red), and DAPI (blue) staining in tumors from the indicated groups. […] H, I, Representative IVIS images (H) and quantification (I) of NOG mice that were injected with HCT116-luc cells in the cecum wall and treated with either SB505124 or vehicle via abdominal injection. Liver metastases were imaged and quantified using the IVIS Lumina Imaging System (n = 5 mice per group). […] P values were calculated using one-way ANOVA with Bonferroni multiple-comparison test (B–D, F, and G) or two-tailed Student’s t-test (I).

[3] = tested on: type I TGFβ/Activin receptors; settings: SB505124; cited from earlier work
Method: Fig. 3 Secretory GREM1 binding of ACVR1C induces EMT via SMAD2/3 pathway. A, RNA sequencing was performed on HCT116 cells treated with GREM1 conditioned medium (GREM1-CM) or vector control conditioned medium (Vec-CM), followed by GSEA of the C2 gene sets. NES, normalized enrichment score; all P values equal to 0. B, Activation levels of the ACVR1C pathway markers (p-SMAD2/3 and SMAD2/3), as well as expression of the epithelial marker (E-CAD) and the mesenchymal markers (SNAIL, ZEB1, and β-CAT) were compared by immunoblotting analysis in SW480 and HCT116 cells treated with Vec-CM, GREM1-CM, GRE ...

In the case of `Cc1cccc(-c2[nH]c(C(C)(C)C)nc2-c2ccc3c(c2)OCO3)n1` [SB505124], the “GREM1-CM-induced p-SMAD2/3, effect of inhibitor” value [1] is listed as “significantly blocked GREM1-CM–induced p-SMAD2/3 activation and EMT”, the liver metastasis [2] is listed as “significant reduction in liver metastasis; also recorded: markedly attenuated the metastatic phenotype induced by GREM1-CM” and the “selectivity of SMAD2/3 phosphorylation block” value [3] is listed as “selectively blocks the type I TGFβ/Activin receptors-mediated SMAD2/3 phosphorylation”.
